Data on 2 compounds can be found in US11059795B2, “Androgen receptor modulators and methods for their use” (ESSA Pharma, Inc., priority 2018, dated 2021).

Series [1] has as its target T1, LBD of estrogen receptor-α (ERα) fused to DBD of GAL4 (Homo sapiens, UniProt P03372).
T1 sequence (P03372 311-547 limits assumed): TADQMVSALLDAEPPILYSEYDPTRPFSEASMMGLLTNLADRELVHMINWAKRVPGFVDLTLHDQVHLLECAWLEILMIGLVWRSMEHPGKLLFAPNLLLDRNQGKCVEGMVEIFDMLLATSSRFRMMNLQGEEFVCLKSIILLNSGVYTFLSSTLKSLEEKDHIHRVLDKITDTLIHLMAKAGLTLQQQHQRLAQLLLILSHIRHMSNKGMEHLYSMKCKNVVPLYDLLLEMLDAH
As to the kind of experiment: LBD-expressing reporter assay (GeneBLAzer), ERα LBD. In kind it is cell-based. The conditions noted are these: inhibition of maximal activity attained with agonist; read-out: Steroid Receptor LBD IC50 (μM) ERα. An excerpt: (§1) This assay uses cells that stably express a chimera fusion protein comprising the LBD of a steroid hormone receptor fused to the DNA-binding domain (DBD) of GAL4 along with beta-lactamase reporter under transcriptional control of an upstream activator sequence (UAS). When agonist binds to the LBD of the GAL4 (DBD)-steroid hormone (LBD) chimera fusion protein, the protein binds to the UAS, resulting in expression of beta-lactamase. LBDs of androgen receptor (AR), progesterone receptor-beta (PRβ), glucocorticoid receptor (GR), estrogen receptor-α (ERα), and estrogen receptor-β (ERβ) were tested and IC50s calculated for inhibiting maximal activity attained with agonist.

In series [2] the target is T2, LBD of progesterone receptor-beta (PRβ) fused to DBD of GAL4 (Homo sapiens, UniProt P06401).
T2 sequence (P06401 679-913 limits assumed): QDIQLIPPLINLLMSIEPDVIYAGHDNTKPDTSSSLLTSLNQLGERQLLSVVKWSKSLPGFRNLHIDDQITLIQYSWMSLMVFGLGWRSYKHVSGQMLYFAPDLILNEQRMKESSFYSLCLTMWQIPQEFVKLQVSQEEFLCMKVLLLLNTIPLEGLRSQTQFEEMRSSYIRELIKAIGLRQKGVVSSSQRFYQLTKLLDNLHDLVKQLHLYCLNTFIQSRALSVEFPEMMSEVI
As to the kind of experiment: LBD-expressing reporter assay (GeneBLAzer), PR LBD. Type of series: cell-based. As to conditions: inhibition of maximal activity attained with agonist; read-out: Steroid Receptor LBD IC50 (μM) PR.
Text: as §1
Background: Reporter assays use an easily measured gene product as a stand-in for the process of interest.

Series [3] has as its target T3, LBD of glucocorticoid receptor (GR) fused to DBD of GAL4 (Homo sapiens, UniProt P04150).
T3 sequence (P04150 524-758 limits assumed): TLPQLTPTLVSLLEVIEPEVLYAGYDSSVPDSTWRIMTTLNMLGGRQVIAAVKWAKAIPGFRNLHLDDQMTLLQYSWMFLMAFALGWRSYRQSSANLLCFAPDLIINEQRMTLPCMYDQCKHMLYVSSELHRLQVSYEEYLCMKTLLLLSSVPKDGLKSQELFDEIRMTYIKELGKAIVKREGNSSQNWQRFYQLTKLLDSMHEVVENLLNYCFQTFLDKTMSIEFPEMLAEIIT
As to the kind of experiment: LBD-expressing reporter assay (GeneBLAzer), GR LBD. Type of series: cell-based. The conditions noted are these: inhibition of maximal activity attained with agonist; read-out: Steroid Receptor LBD IC50 (μM) GR.
Text: as §1

Series [4] relates to LN-CaP95 cells. As to the kind of experiment: Cell proliferation assay, LNCaP95 (BrdU incorporation). Type of series: cell-based. As to conditions: LNCaP-95, read-out: Cellular Proliferation/Viability IC50 (μM) LNCaP95. On the procedure:
(§2) Cell proliferation/viability was measured in LNCaP and PC3 cells with Alamar blue, and proliferation was measured in LN-CaP95 cells with BrdU incorporation. In LNCaP cells, AR specific proliferation is calculated by measuring the difference between control cells treated with or without 0.1 nM R1881.
(In general: Uptake of a labelled nucleoside into DNA is a usual measure of proliferation.)

Series [5] deals with LNCaP cells. As to the kind of experiment: Cell proliferation/viability assay, LNCaP (Alamar blue). Type of series: cell-based. As to conditions: Homo sapiens, AR specific proliferation with 0.1 nM R1881, read-out: Cellular Proliferation/Viability IC50 (μM) LNCaP. On the procedure: as §2
The subject of series [6] is PC3 cells. As to the kind of experiment: Cell proliferation/viability assay, PC3 (Alamar blue). The conditions noted are these: Homo sapiens; PC-3, Alamar blue; read-out: Cellular Proliferation/Viability IC50 (μM) PC-3. In kind it is cell-based. On the procedure:
as §2
(Alamar Blue is a resazurin reagent that responds to reducing activity.)

In series [7] the target is LBD of estrogen receptor-β (ERβ) fused to DBD of GAL4 (Homo sapiens, UniProt Q92731). Kind of series: LBD-expressing reporter assay (GeneBLAzer), ERβ LBD. Type of series: cell-based. As to conditions: inhibition of maximal activity attained with agonist; read-out: Steroid Receptor LBD IC50 (μM) ERβ.
Text: as §1, with “To assess if the representative compounds (Compounds A13, A28, A38, A74, A93, and A109) compete with ligand (agonist) for the ligand-binding domain (LBD) of steroid hormone receptors (which would be off-target), the GeneBLAzer assay was employed (Thermo Fisher). This” for “This”

Series [8] is described as follows: Microsomal stability assay, human liver microsomes. In kind it is in vitro ADME. The conditions noted are these: pH 7.4, read-out: Liver microsome T½ (min) Human. A digest of the protocol: (§3)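 Compound at 1 μM was incubated at 37° C with 0.5 mg/mL liver microsomes and 1 mM NADPH and/or 1 mM UDPGA (with alamethicin) in 100 mM potassium phosphate pH 7.4, 3 mM MgCl2. Samples were taken at 0, 15, 30 and 60 min and measured by LC/MS/MS. t½ came from compound loss relative to 0 min, and Clint was scaled with 45 mg microsomal protein/g liver.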

Series [9] is described as follows: Microsomal stability assay, rat liver microsomes. In kind it is in vitro ADME. The conditions noted are these: pH 7.4, read-out: Liver microsome T½ (min) Rat. Here is the method: (§4) Microsomal stability assay is a widely used in vitro model to characterize the metabolic conversion by phase I enzymes, such as cytochrome P450 (CYP) enzymes. Since metabolism is known to be highly variable in different species, microsomal stability assay is commonly run in multiple species. Metabolic stability of testing compound can be evaluated using human, rat, mouse, or other animal liver or intestine microsomes to predict intrinsic clearance.
(§5) The assay was carried out in 96-well microtiter plates at 37° C. Reaction mixtures (25 μL) contained a final concentration of 1 μM test compound, 0.5 mg/mL liver microsomes protein, and 1 mM NADPH and/or 1 mM UDPGA (with alamethicin) in 100 mM potassium phosphate, pH 7.4 buffer with 3 mM MgCl2. The incubation was done with N=1, but duplicate incubation at each time point can be prepared if necessary. At each of the time points (for example, 0, 15, 30, and 60 minutes), 150 μL of quench solution (100% acetonitrile with 0.1% formic acid) with internal standard was transferred to each well. Besides the zero minute controls, mixtures containing the same components except the NADPH can also be prepared as the negative control. Verapamil was included as a positive control to verify assay performance. Plates were sealed, vortexed, and centrifuged at 4° C. for 15 minutes at 4000 rpm. The supernatant is transferred to fresh plates for LC/MS/MS analysis.
(§6) Summarized conditions: [Compound]=[…], [LM]=0.5 mg/mL, [NADPH]=1 mM and/or [UDPGA]=1 mM, Buffer=100 mM Potassium Phosphate, pH 7.4 with 3 mM MgCl2, Time=0, 15, 30, and 60 min, and Temperature=37° C.
(§7) All samples were analyzed on LC/MS/MS using an AB Sciex API 4000 instrument, coupled to a Shimadzu LC-20AD LC Pump system. Analytical samples were separated using a Waters Atlantis T3 dC18 reverse phase HPLC column (20 mm×2.1 mm) at a flow rate of 0.5 mL/min. The mobile phase consisted of 0.1% formic acid in water (solvent A) and 0.1% formic acid in 100% acetonitrile (solvent B).
(§8) The extent of metabolism is calculated as the disappearance of the test compound, compared to the 0-min time incubation. Initial rates are calculated for the compound concentration and used to determine half-life (t½) values and subsequently, the intrinsic clearance (Clint). Clint=(0.693)(1/t½ (min))(g of liver/kg of body weight)(mL incubation/mg of microsomal protein)(45 mg of microsomal protein/g of liver weight)

Series [10] in a line: Microsomal stability assay, monkey liver microsomes. Type of series: in vitro ADME. The conditions noted are these: pH 7.4, read-out: Liver microsome T½ (min) Monkey. Here is the method: as §4, §5, §6, §7, §8
Series [11] in a line: Microsomal stability assay, mouse liver microsomes. As to conditions: pH 7.4; mouse liver microsomes; read-out: Liver microsome T½ (min) Mouse. In kind it is in vitro ADME. In outline: as §3
Series [12] can be described thus: Microsomal stability assay, dog liver microsomes. In kind it is in vitro ADME. The conditions noted are these: pH 7.4, read-out: Liver microsome T½ (min) Dog. On the procedure:
as §4, §5, §6, §7, §8

Series [13] in a line: In vivo pharmacokinetics in plasma after oral gavage (PO) in male CD-1 mice. As to conditions: 5 mg/kg PO, Table 4. On the procedure: The purpose of this study is to determine the pharmacokinetics of the tested compounds in plasma, following oral gavage administration (PO) to male CD-1 mice.
Animal Husbandry: Animals were group housed during acclimation and the study. The animal room environment were controlled (target conditions: temperature 18 to 26° C., relative humidity 30 to 70%, 12 hours artificial light and 12 hours dark). Temperature and relative humidity were monitored daily. Animals were fasted at least 12 hours prior to the administration. All animals had access to Certified Rodent Diet ad libitum 4 hours post dosing.
Dose Formulation: prepared 85-100 uL of a stock solution of representative compounds of the disclosure in DMSO at 50 mM; 1.5% v/v of Tween 80 were added and mixed gently; 95.5% v/v saline was added gently to the organic phase. The solution was mixed slowly by reverse pipetting to get a clear solution.
Dose Administration: the dose formulations were administered via oral gavage per facility SOPs. The dose volume were determined by the animals' body weight collected on the morning of dosing day
Sample Collection: blood collection (about 0.05 mL per time point) was performed from saphenous vein of each animal into polypropylene tubes at each timepoints (0, 0.25, 0.5, 1, 2, 4, 8, 12, and 24 hr). All blood samples were transferred into pre-chilled tubes containing 2 μL of K2-EDTA (0.5M) and placed on wet ice until centrifugation. Each collected blood sample was in the wet-ice before centrifugation. Each collected blood was under centrifugation for 15 minutes at 4° C. and 3000 g for plasma collection. Plasma samples were stored in polypropylene tubes, quickly frozen over dry ice and kept at −70±10° C. until LC/MS/MS analysis.
Bioanalytical analysis: A LC-MS/MS method for the quantitative determination of tested compound in biological matrix were developed under non-GLP compliance. A calibration curve with at least 7 non-zero calibration standards were applied for the method including LLOQ.
Plasma concentration versus time data were analyzed by non-compartmental approaches using the Phoenix WinNonlin 6.3 software program. Cl, Vdss, C0, Cmax, Tmax, T^1/2, AUC(0-t), AUC(0-inf), MRT(0-t), MRT(0-inf), % F (oral availability) and graphs of plasma concentration versus time profile were reported.

A short description of series [14]: Hepatocyte stability assay, human hepatocytes. In kind it is in vitro ADME. The conditions noted are these: cryopreserved hepatocytes, read-out: Hepatocytes T½ (min) Human.
Text: The […] of in vitro intrinsic clearance (Clint) for drug candidates in the early discovery stage is common practice in the pharmaceutical industry. The Clint values of drug candidates can help to confirm whether metabolism is the main clearance pathway when it is compared with the total body clearance in vivo. Hepatocytes are among the routinely used in vitro systems for measuring clearance. Hepatocytes have been reported to retain most of the phase I and phase II metabolic activities, and therefore, it is a useful tool to estimate the intrinsic clearance for potential drug candidates.
Metabolic stability of testing compound were be evaluated using human and mouse hepatocytes and can also be use rat, mouse, or other animal hepatocytes to predict intrinsic clearance. Cryopreserved hepatocytes were removed from the liquid nitrogen tank and thawed in a 37° C. water bath. As soon as the cells pulled away from the vial wall, they were decanted into 48 ml of warm HT medium. Cells were centrifuged for four minutes at 420 rpm (50 g). After removing the supernatant, pellet was re-suspended in warm DMEM medium. Cell density was counted by a hemacytometer.
The assay was carried out in 96-well microtiter plates. Compounds were incubated for 0, 60, 120, and 180 minutes at 37° C. with hepatocytes. Reaction mixtures (50 μL) contained a final concentration of 1 μM test compound, 0.5 million cells/mL hepatocytes in the DMEM medium. At each of the time points (for example, 0, 1, 2, and 3 hours), 200 μL of quench solution (100% acetonitrile with 0.1% formic acid) with internal standard was transferred to each well. Midazolam was included as a positive control to verify assay performance. Plates were sealed and centrifuged at 4° C. for 15 minutes at 4000 rpm. The supernatant is transferred to fresh plates for LC/MS/MS analysis.
Summarized conditions (customizable): [Compound]=[…], Positive control: midazolam and/or naloxone, [Hepatocyte]=0.5 million cells/Ml, time=0, 60, 120, and 180 min, t=37° C.
as §7
The extent of metabolism was calculated as the disappearance of the test compound, compared to the 0-min control reaction incubations. Initial rates were calculated for the compound concentration and used to determine t½ values and subsequently, the intrinsic clearance, Clint. Clint=(0.693)(1/t½(min))(mL incubation/million cells)

Series [15] has as its system LNCaP tumors. Kind of series: LNCaP xenografts model in castrated male NCG mice. The conditions noted are these: Table 4; extrapolated Cmin in efficacy. Type of series: in vivo. On the procedure: Tumor growth was measured in male NCG mice bearing LNCaP tumors. Castration was performed when tumors reached ˜100 mm^3 and dosing (60 mg/kg PO qd) started 1 week after castration. […] Individual tumor volume change from baseline measured at the end of the experiment.

Chain of LBD of estrogen receptor-β (ERβ) fused to DBD of GAL4 (Q92731 264-498 limits assumed): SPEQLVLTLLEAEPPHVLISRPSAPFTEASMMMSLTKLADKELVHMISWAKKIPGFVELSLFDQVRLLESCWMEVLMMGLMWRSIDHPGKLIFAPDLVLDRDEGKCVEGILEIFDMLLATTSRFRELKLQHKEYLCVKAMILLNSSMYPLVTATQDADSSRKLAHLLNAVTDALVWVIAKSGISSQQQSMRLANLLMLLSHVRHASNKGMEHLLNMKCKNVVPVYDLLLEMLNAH

Regarding `CC(C)(c1ccc(OC[C@H](O)CO)cc1)c1ccc(OC[C@H](O)CCl)cc1` [EPI-002, reference compound], the IC50 is over 10 µM in series [1]; over 10 µM in series [2]; over 10 µM in series [3]; about 20 µM in series [4]; 9 µM in series [5]; over 10 µM in [6]. The IC50 in [7] was over 10 µM.

As to `CNC(=O)c1ccc(N2C(=S)N(c3ccc(C#N)c(C(F)(F)F)c3)C(=O)C2(C)C)cc1F` [Enzalutamide, enzalutamide, reference compound], the half-life at 1 μM in series [8] was over 120 min; in series [9], over 120 min; in series [10], over 120 min; in [11], over 120 min; in series [12] it was over 120 min; in series [14] it was over 360 min. The “Cmin at 5 mg/kg PO” value in series [13] was 3.80 µM; in series [15] it was 22.8 µM.
